What was measured:
Assay type in all cases: functional
Candida albicans = assay: Antifungal activity against Candida albicans after 24 hrs by NCCLS protocol based method
Candida tropicalis = assay: Antifungal activity against Candida tropicalis after 24 hrs by NCCLS protocol based method
Cryptococcus neoformans = assay: Antifungal activity against Cryptococcus neoformans after 72 hrs by NCCLS protocol based method
Trichophyton rubrum = assay: Antifungal activity against Trichophyton rubrum after 7 days by NCCLS protocol based method; conditions: 168 h
Candida parapsilosis = assay: Antifungal activity against Candida parapsilosis after 24 hrs by NCCLS protocol based method; conditions: Lodderomyces parapsilosis
Fonsecaea compacta = assay: Antifungal activity against Fonsecaea compacta after 24 hrs by NCCLS protocol based method

Measured: MIC80

O=C(OC1CCN(CC(O)(Cn2cncn2)c2ccc(F)cc2F)CC1)c1cccc([N+](=O)[O-])c1 (stereo unspecified)
0.0039 to 0.0625 µg/mL: all assays above

O=C(OC1CCN(CC(O)(Cn2cncn2)c2ccc(F)cc2F)CC1)c1cccc(F)c1 (stereo unspecified)
0.0039 to 0.0625 µg/mL: all assays above

Cc1ccc(C(=O)OC2CCN(CC(O)(Cn3cncn3)c3ccc(F)cc3F)CC2)cc1 (stereo unspecified)
0.0039 to 0.0625 µg/mL: all assays above

O=C(OC1CCN(CC(O)(Cn2cncn2)c2ccc(F)cc2F)CC1)c1cccc(C(F)(F)F)c1 (stereo unspecified)
0.0039 to 0.0625 µg/mL: all assays above

COc1ccc(C(=O)OC2CCN(CC(O)(Cn3cncn3)c3ccc(F)cc3F)CC2)cc1 (stereo unspecified)
0.0039 to 0.0625 µg/mL: all assays above

O=C(OC1CCN(CC(O)(Cn2cncn2)c2ccc(F)cc2F)CC1)c1ccc([N+](=O)[O-])cc1 (stereo unspecified)
0.0039 to 0.0625 µg/mL: all assays above

COc1ccc(C(=O)OC2CCN(CC(O)(Cn3cncn3)c3ccc(F)cc3F)CC2)cc1OC (stereo unspecified)
0.0039 to 0.0625 µg/mL: all assays above

O=C(OC1CCN(CC(O)(Cn2cncn2)c2ccc(F)cc2F)CC1)c1ccc(Cl)cc1Cl (stereo unspecified)
0.0039 to 0.0625 µg/mL: all assays above

O=C(OC1CCN(CC(O)(Cn2cncn2)c2ccc(F)cc2F)CC1)c1ccccc1F (stereo unspecified)
0.0039 to 0.0625 µg/mL: all assays above

Cc1ccc(C(=O)OC2CCN(CC(O)(Cn3cncn3)c3ccc(F)cc3F)CC2)c(C)c1 (stereo unspecified)
0.0039 to 0.0625 µg/mL: all assays above

CCCCCCc1ccc(C(=O)OC2CCN(CC(O)(Cn3cncn3)c3ccc(F)cc3F)CC2)cc1 (stereo unspecified)
0.0039 to 0.0625 µg/mL: all assays above

CCCCCc1ccc(C(=O)OC2CCN(CC(O)(Cn3cncn3)c3ccc(F)cc3F)CC2)cc1 (stereo unspecified)
0.0039 to 0.0625 µg/mL: all assays above

O=C(OC1CCN(CC(O)(Cn2cncn2)c2ccc(F)cc2F)CC1)c1ccc(Cl)cc1 (stereo unspecified)
0.0039 to 0.0625 µg/mL: all assays above

COc1ccccc1C(=O)OC1CCN(CC(O)(Cn2cncn2)c2ccc(F)cc2F)CC1 (stereo unspecified)
0.0039 to 0.0625 µg/mL: all assays above

O=C(OC1CCN(CC(O)(Cn2cncn2)c2ccc(F)cc2F)CC1)c1ccccc1[N+](=O)[O-] (stereo unspecified)
0.0039 to 0.0625 µg/mL: all assays above

Cc1ccc(C(=O)OC2CCN(CC(O)(Cn3cncn3)c3ccc(F)cc3F)CC2)cc1C (stereo unspecified)
0.0039 to 0.0625 µg/mL: all assays above

Reference: ChEMBL document CHEMBL4396865, “Current advances of triazole alcohols derived from fluconazole: Design, in vitro and in silico studies” (2019)
